Laboratory results taken from patent US20230404987A1, “METHOD OF TREATING BREAST CANCER” (Eisai R&D Management Co., Ltd., priority 2020, published 2023).
Where “and” joins values, the source holds several entries; their conditions need not be identical. Equal values may be shown once.

Key:
[1] = test system: locally advanced or metastatic ER+, HER2-negative breast cancer; experiment: Phase 1/2 study of Compound 1 QD PO: antitumor efficacy (best overall response, CBR, PFS); format: in vivo, human; details: for Confirmed partial responses / Clinical benefit rate (≥23 weeks) / Stable disease (SD) rate: response-evaluable subjects; for mPFS: started on 450 mg; for Median PFS: full analysis set; for Progression free survival, median (95% CI): FIG. 4, Example 3; for Progression free survival, median (95%): FIG. 3, Example 3
Description: (§1) Compound 1 was tested in a first-in-human, Phase 1/2 study in women with locally advanced or metastatic ER+, HER2-negative breast cancer. In this multicenter study, women with locally advanced or metastatic ER+, HER2− breast cancer were treated with Compound 1 administered QD, PO over a 28-day cycle after progression on at least 1 hormonal therapy and at least 1 additional therapy/regimen.
(§2) The primary objective of the Phase 1 was to determine the MTD and RP2D in pretreated subjects with ER+, HER2−metastatic breast cancer. Secondary objectives included safety and antitumor activity. The primary objective of the Phase 2 was to estimate the efficacy of this agent in terms of objective response rate (ORR), clinical benefit rate (CBR), and progression-free survival (PFS). Secondary objectives included safety. The trial was designed to exclude a lower limit of ORR of 5% at one-sided level of significance of 0.05 and a power of 90%.
Over 30 months, 130 patients were enrolled; 47 in the Phase 1 part and 83 in the Phase 2 part of the trial. A total of 105 subjects, including 73 subjects on 450 mg were response-evaluable.
Experiments conducted subsequent to those reported in Example 1 were directed to identify the parameters driving the activity of Compound 1 in the trial population. Two parameters were of particular interest: 1) PgR status, and 2) ESR1 mutant type and allele frequency. PFS was used in these analyses because it is a continuous variable. […] The effect of baseline circulating ESR1, of particular ESR1 mutants and their allele frequency was unknown.
The effect of PgR positivity and the detection prior to treatment of ESR1 mutations Y537S and D538G on median PFS was then investigated using the Kaplan-Meier method. The effect of ESR1 clonality was also investigated since the presence of simultaneous clones of ESR1 mutations likely indicates very advanced or complex disease. Of note, the allele frequencies of the different ESR1 mutants were not identical, indicating the presence of multiple clones in a tumor, rather than multiple mutations in the same tumor ESR1 gene. For the purpose of these analyses, clonal Y537S was defined as ESR1 Y537S mutation detected in a pre-treatment whole blood sample at a mutant allele frequency (MAF)≥0.5% with a MAF for D538G<0.5%. Conversely, clonal D538G was defined as ESR1 D538G mutation detected in a pre-treatment whole blood sample at a MAF≥0.5% with a MAF for Y537S<0.5%.
Following data analysis described above, patients remained in the Phase 2 study reported in Example 1, and clinical data collection continued. The primary objective of this study was to estimate the efficacy of Compound 1 in terms of best overall response rate (ORR), duration of response (DoR), clinical benefit rate, and progression-free survival (PFS) in all subjects and in those with and without ERα mutation (ERαMUT).
83 patients were treated with 450 mg in the Phase 2 study of Example 1. Additionally, 11 patients who were treated with 450 mg in the Phase 1 part of the trial (also discussed in Example 1) have been grouped with these 83 Phase 2 patients for discussion in this example. […] Patients were heavily pretreated, and 85% of the patients received prior CDK4/6 inhibitors.

[2] = test system: PDX breast cancer models, including those with mutated ESR1; details: multiple PDX breast cancer models; cited from earlier work
[3] = test system: women with locally advanced or metastatic ER+, HER2-negative breast cancer; experiment: Phase 1/2 study of Compound 1 QD PO: safety (DLT, adverse events); format: in vivo, human
Description: as §1, §2
The Phase 1 part evaluated once daily doses from 100 to 600 mg. […] Consequently, the dose of 450 mg was selected as the RP2D.

[4] = 450 mg, N = 72, response-evaluable set, Example 3
[5] = 450 mg, N = 73, response evaluable set, Example 1
[6] = 10 patients with clonal ESR1 Y537S, 450 mg, Example 3
[7] = Clonal D538G (N = 17), 450 mg, Example 3
[8] = Clonal Y537S (N = 10), 450 mg, Example 3
[9] = Clonal Y537S or Clonal D538G (N = 27), 450 mg, Example 3
[10] = Polyclonal Y537S and D538G (N = 2), 450 mg, Example 3
[11] = Y537S and D538G Negatives (N = 43), 450 mg, Example 3
[12] = all doses, N = 105, response evaluable set, Example 1

## CN(C)C(=O)/C=C/CNCCOc1ccc(/C(=C(/CC(F)(F)F)c2ccccc2)c2ccc3[nH]nc(F)c3c2)cn1 [Compound 1]
[1]; 450 mg dose, 90% confidence limits 8.7%-23.7
  Confirmed partial responses: 15%
[1]; 450 mg starters with clonal ESR1 Y537S or clonal D538G mutations, Example 2
  Median PFS (Kaplan-Meier): 5.5 months
[1]; 450 mg, N = 72, Example 3
  Median time to response (min, max): 2.7 (1.6, 5.5) mo
[1]; 450 mg, N = 72, Example 3, descriptive median
  Median duration of response (min, max): 7.5 (3.5, 16.6) mo
[1]; [4]
  Best overall response: Complete response: 0 n (%)
  Best overall response: Confirmed partial response: 12 (17) n (%)
  Best overall response: Not evaluable: 2 (3) n (%)
  Best overall response: Progressive disease: 27 (38) n (%)
  Best overall response: Stable disease: 31 (43) n (%)
  Clinical benefit rate (CR + PR + SD ≥ 23 weeks): 29 (40) n (%)
  ORR (95% confidence interval): 17 (9, 27) %
[1]; [5]
  Best overall response: Complete response (CR): 0 N (%)
  Best overall response: Confirmed partial response (PR): 11 (15) N (%)
  Best overall response: Not evaluable: 3 (4) N (%)
  Best overall response: Progressive disease (PD): 26 (36) N (%)
  Clinical benefit rate (CR + PR + SD lasting for ≥23 weeks): 24 (33) N (%)
[1]; 450 mg
  Clinical benefit rate (≥23 weeks): 33%
  Stable disease (SD) rate: 45%
[1]; [6]
  Partial responses: 30%
  Stable disease: 40%
[1]; All subjects, PgR negative, N=34
  mPFS: 2.1 months
[1]; All subjects, PgR positive, N=38
  mPFS: 5.5 months
[1]; [7]
  Clinical benefit rate: 6 (35) n (%)
  Complete response: 0 n (%)
  Confirmed partial response: 0 n (%)
  Not evaluable: 0 n (%)
  Progressive disease: 7 (41) n (%)
  Stable disease: 10 (59) n (%)
[1]; Clonal D538G, 450 mg, Example 3
  Median PFS: 5.4 mo
[1]; Clonal D538G, N=19, 13 events
  Progression free survival, median (95% CI): 5.4 (1.7, 7.2) months
[1]; Clonal D538G, PgR negative, N=3
  mPFS: 1.7 months
[1]; Clonal D538G, PgR positive (≥1%), N=10
  mPFS: 4.5 months
[1]; [8]
  Clinical benefit rate: 6 (60) n (%)
  Complete response: 0 n (%)
  Confirmed partial response: 3 (30) n (%)
  Not evaluable: 0 n (%)
  Progressive disease: 3 (30) n (%)
  Stable disease: 4 (40) n (%)
[1]; Clonal Y537S + Clonal D538G (combined data), PgR negative, N=3
  mPFS: 1.7 months
[1]; Clonal Y537S + Clonal D538G (combined data), PgR positive, N=16
  mPFS: 7.2 months
[1]; [9]
  Clinical benefit rate: 12 (44) n (%)
  Complete response: 0 n (%)
  Confirmed partial response: 3 (11) n (%)
  Not evaluable: 0 n (%)
  Progressive disease: 10 (37) n (%)
  Stable disease: 14 (52) n (%)
[1]; Clonal Y537S or Clonal D538G, 450 mg, Example 3
  Median PFS: 5.4 mo
[1]; Clonal Y537S, 450 mg, Example 3
  Median PFS: 7.3 mo
[1]; Clonal Y537S, N=10, 8 events
  Progression free survival, median (95% CI): 7.3 (0.8, 11.2) months and 7.3 months
[1]; Clonal Y537S, PgR positive (≥1%), N=6
  mPFS: 13.0 months
[1]; PgR Negative (≤1% positive cells), N=34, 20 events
  Progression free survival, median (95%): 2.1 (1.7, 7.4) months
[1]; PgR Positive (≥1% positive cells), N=38, 24 events
  Progression free survival, median (95%): 5.4 (2.0, 8.8) months
[1]; [10]
  Clinical benefit rate: 1 (50) n (%)
  Complete response: 0 n (%)
  Confirmed partial response: 0 n (%)
  Not evaluable: 0 n (%)
  Progressive disease: 1 (50) n (%)
  Stable disease: 1 (50) n (%)
[1]; Polyclonal Y537S and D538G, 450 mg, Example 3
  Median PFS: 3.5 mo
[1]; Polyclonal Y537S and D538G, N=4, 3 events
  Progression free survival, median (95% CI): 3.5 (1.7, 5.4) months
[1]; Polyclonal, PgR positive, N=3
  mPFS: 2.6 months
[1]; [11]
  Clinical benefit rate: 16 (37) n (%)
  Complete response: 0 n (%)
  Confirmed partial response: 9 (21) n (%)
  Not evaluable: 2 (5) n (%)
  Progressive disease: 16 (37) n (%)
  Stable disease: 16 (37) n (%)
[1]; Y537S and D538G Negatives, 450 mg, Example 3
  Median PFS: 3.8 mo
[1]; Y537S and D538G negatives, N=61, 33 events
  Progression free survival, median (95% CI): 3.8 (2.0, 7.3) months
[1]; Y537S/D538G absent, PgR negative, N=31
  mPFS: 2.1 months
[1]; Y537S/D538G absent, PgR positive, N=19
  mPFS: 3.8 months
[1]; all 94 patients treated with 450 mg, Example 3
  Median progression free survival: 5.1 months
[1]; [12]
  Best overall response: Complete response (CR): 0 N (%)
  Best overall response: Confirmed partial response (PR): 13 (12) N (%)
  Best overall response: Not evaluable: 7 (7) N (%)
  Best overall response: Progressive disease (PD): 37 (35) N (%)
  Clinical benefit rate (CR + PR + SD lasting for ≥23 weeks): 36 (34) N (%)
[1]; all doses
  Clinical benefit rate (≥23 weeks): 34%
  Stable disease (SD) rate: 46%
[1]; all doses, 90% confidence limits 7.5%-19%
  Confirmed partial responses: 12%
[1]; monotherapy, once daily 450 mg, heavily pretreated ER+, HER2−, metastatic breast cancer patients
  Anti-tumor activity (conclusion): demonstrated anti-tumor activity
[1]; subjects who started at the 450 mg dose, 95% CI 3.2-6.2, Examples 1 and 2
  Median PFS (Kaplan-Meier): 3.8 months
[2]
  Antitumor activity: significant antitumor activity
[3]; 600 mg cohort, in 2 of 7 subjects (Grade 3 fatigue and Grade 3 drug eruption)
  Dose-limiting toxicities (DLTs) observed: 2 DLTs
[3]; Phase 1, once daily doses up to 450 mg
  Dose-limiting toxicities (DLTs): No dose-limiting toxicities
[3]; in vivo
  Grade 1 sinus bradycardia (asymptomatic): 35%
  Grade 2 QTcF prolongation: 2 subjects
  Grade 2 sinus bradycardia (symptomatic, no intervention needed): 4%
  Grade 3 QTcF prolongation: 3 subjects
  Treatment-related deaths: no treatment-related deaths
[3]; once daily, PO
  RP2D (recommended phase 2 dose): 450 mg
[3]; serum bilirubin, urinary tract obstruction, hyponatremia, all considered related to disease progression
  Grade 4 AE: Three
[3]; subjects, all doses
  Grade 2 or higher adverse event: AST increase: 11%
  Grade 2 or higher adverse event: anemia: 20%
  Grade 2 or higher adverse event: diarrhea: 11%
  Grade 2 or higher adverse event: fatigue: 16%
  Grade 2 or higher adverse event: nausea: 14%
